In one data set the test system is pTBK1. The data set can be described thus: pTBK1 level with and without UVB exposure (Example 111). Type of data set: cell-based. The following applies: varying concentrations of compound, alone or after UVB exposure (FIGS. 4B and 4C).
Data set [1] relates to interferon-stimulated gene (ISG) response. The data set can be described thus: In vivo decitabine challenge model in BALB/c mice. The following applies: decitabine i.p. 5 mg/kg, RNAseq. As to the method:
Thirty 9-11 week old BALB/c mice were acclimated to the lab for at least 5 days. Compounds 2, 40 and 67 were prepared in a 20% PEG400 (pH 3.5) solution for p.o. administration, compounds were prepared no more than 30 minutes prior to daily dosing. Decitabine (Sigma) was dissolved in sterile PBS (pH 7.4) and dosed within 30 minutes of preparation of the solution. Doses of both the compound and decitabine were administered once a day, every day from Day 0 to day 4. On Day 0, mice were split into […] of five mice and given their first dose of decitabine (i.p., 5 mg/kg) and compound. Dosing groups were as in the following table (all doses in mg/kg): [table] Decitabine (i.p., 5 mg/kg) and compounds 2, 40 or 67 were administered daily from […] to Day 4. All mice were euthanized 1 hour after the last dose administration on Day 4. Spleen and kidneys were harvested and snap frozen in liquid nitrogen, and plasma (EDTA) was collected for bioanalysis. Total RNA was isolated using the PureLink RNA Mini Kit (ThermoFisher) and prepared for RNAseq using the TruSeq Stranded mRNA platform (Illumina). 50M Stranded reads were collected on an Illumina HiSeq system. Data were analyzed as follows: RNA sequencing reads were aligned to the […] reference genome using the STAR RNA-seq aligner (Dobin et al., 2013). Expression of each transcript was quantified using Salmon (Patro, et al. 2015) TPM values for each transcript. These transcript-level TPM values were aggregated by gene to get gene-level TPM values, and log-transformed these values. Mouse orthologs for each gene in the list of ISG-associated genes in the human genome from Liu et al., 2019 using Ensembl BioMart (Kinsella et al., 2011) were identified. The ISG score for each sample was calculated as the median log-transformed TPM value across all genes in this ISG gene set.

Another data set has as its system human PBMC. The data set can be described thus: Decitabine-stimulated human PBMC assay. Type of data set: cell-based. The settings on record: PBMCs, 5 days; for IFN-β production: anti-CD3/anti-CD28, decitabine 10 μM, FIGS. 3A and 3B. As to the method:
EasySep buffer (32 mL, […] Technologies, cat. #20144) was used to dilute 8 mL of LRSC buffy coat (from fresh Leukopak) with gentle mixing. The diluted buffy coat (20 mL) was transferred into each of two SepMate 50 tubes, and the tubes were filled with 15 mL of Lyphoprep ([…], cat. #07851) density gradient. The SepMate tubes were then centrifuged at 1200 G for 10 minutes at room temperature with the brake on. The top layer of supernatant was collected in SepMate tubes by quickly pouring it into a new 50 mL conical tube. The PBMCs were washed with EasySep buffer×2 by centrifuging at 300 G for 5 minutes. The cells were resuspended in 30 mL of EasySep and centrifuged at 100 G for 5 minutes with the brake off, and the platelets were removed. The cells were then resuspended in 6 mL of 1×RBC lysis buffer (Invitrogen) and incubated at 37° C. for 5 minutes. 25 mL of EasySep buffer was then mixed into the tube and centrifuged at 300 G for 5 minutes. The cells were resuspended in 10 mL of EasySep buffer and the cells were then counted with Cellometer (AO/PI). The PBMCs were resuspended in RPMI1640 (ThermoFisher)+ 10% FBS (HyClone)+μ/s at 3×10^6/mL. The PBMCs (100 μL, 300 k PBMCs) were then seeded in a 96-well flat bottom microplate (Corning) that had been precoated with 100 μL of anti-CD3 antibody (10 μg/mL in PBS, Biolegend) or PBS at 4° C., one day before the assay was commenced.
To each well the following solutions were added 1) 100 μL of cells (final cell number per well is 3×10^5 cell/well); 2) 25 μL of anti-CD28 antibody at 6× (5 μg/mL final concentration, Biolegend); 3) 25 μL of decitabine at 6× (10 μM final concentration); and 4) Compound in DMSO was dispensed directly into each well with a d300e digital dispenser (Tecan). The final concentration of DMSO for each well was normalized to 0.3%. The plate was incubated at 37° C. without any agitation for 5 days. Samples were collected 120 hours after incubation to determine IFN-β […] levels using a U-PLEX Human IFN-β Assay Sector (5PL) (MSD, cat. #K151VIK-2).
After 5 days, the plate was spun down at 100×G for 5 minutes. Supernatants (100 μL) were collected for interferon R (IFN-0) analysis using the MSD assay noted above, and any residual supernatant was stored at −80° C.

In another data set the test system is 7S mitochondria DNA. The data set can be described thus: Mitochondria DNA assay with PC3 cells. The following applies: Homo sapiens, PC-3, 120 h, 5 days, 7S mitochondria DNA level by qPCR relative to 18S or GAPDH. Format: cell-based. As to the method:
Exemplary compounds were tested for their effect on levels of 7S mitochondria DNA, and the DNA of housekeeping genes 18S and GAPDH. Reduction of 7S mitochondria DNA indicates off-target inhibition of mitochondrial DNA synthesis, which leads to mitochondrial toxicity. Assay procedures and results are described below.
PC3 cells were purchased from ATCC and cultured in F-12 Kaighn's modified medium (Hyclone), 10% heat-inactivated fetal bovine serum (Gibco), 1% Penicillin-Streptomycin (Invitrogen). PC3 cells were treated with a dose titration of a test compound on 6 well plates for 5 days at 37° C., 5% CO2 in a humidified incubator.
Cells were harvested and mitochondria DNA extraction was performed using DNeasy Blood & Tissue Kit (Qiagen) according to the manufacture's instruction.
Mitochondria 7S and housekeeping genes 18S and GAPDH DNA was quantified by multiplex qPCR with the PowerUp™ SYBR™ Green system (Applied Biosystems). Prepare reaction mix consisting of 5 μl of 2× PowerUp™ SYBR™ Green Master Mix, 1 μl of 5 μM Primers for 7S, 18S, or GAPDH, 4 μl of DNA template from DNA extraction above. The primer sequences are below:
qPCR was performed on QuantStudio™ 7 Flex RealTime qPCR system (Applied Biosystems) as set forth below: • a. 50° C. for 2 minutes, then • b. 95° C. for 2 minutes, then • c. 95° C. for 15 seconds, then • d. 60° C. for 60 seconds, • where then steps (c) and (d) were repeated 60 times.
Threshold was calculated by QuantStudio™ 7 Flex Software (ThermoFisher Scientific) using the default settings. Ct values were used to evaluate the relative mitochondria DNA (mtDNA) level using the following formula: ΔCt=Ct (7S target gene)−Ct (18S) or ΔCt=Ct (7S target gene)−Ct (GAPDH). Relative mtDNA level=2^−Δct. Expression fold over DMSO control=2^−Δct (compound treated group)/2^−Δct (DMSO group)
In the table “A” represents values≤0.1 μM; “B” represents values from >0.1 μM to ≤1.0 μM; “C” represents values from >1.0 μM to ≤10.0 μM; “D” represents values from >10.0 μM to ≤100.0 μM; and “E” represents values>100.0 μM.
On the technique in general: In qPCR the cycle at which signal appears reflects the starting amount.

On to `Nc1ccn([C@H]2C[C@H](O)[C@](CO)(CCl)O2)c(=O)n1` [Compound 2, 4-amino-1-((2R,4S,5R)-5-(chloromethyl)-4-hydroxy-5-(hydroxymethyl)tetrahydrofuran-2-yl)pyrimidin-2(1H)-one], for which the “level of pTBK1” value in the data set on pTBK1 is reported as “varies in a dose-dependent fashion”. Besides, the “change in the ISG Score in the spleen and kidney” value (“change in the ISG Score” below) in data set [1] (compound 100 mg/kg p.o. daily) is “show a change in the ISG Score in the spleen and kidney”. Moreover, in the data set on human PBMC, the IFN-β production entry is recorded as “showed inhibition of IFN-β”. The IC50 with 7S mitochondria DNA was ≤ 0.1 µM.

For the compound `Nc1nc(=O)n([C@H]2C[C@H](O)[C@](CO)(CCl)O2)cc1F` [Compound 14, 4-amino-1-((2R,4S,5R)-5-(chloromethyl)-4-hydroxy-5-(hydroxymethyl)tetrahydrofuran-2-yl)-5-fluoropyrimidin-2(1H)-one], the “level of pTBK1” value with pTBK1 is reported as “varies in a dose-dependent fashion”. The IC50 in the data set on 7S mitochondria DNA was ≤ 0.1 µM.

Turning to `C#C[C@]1(CO)O[C@@H](n2cnc3c(N)nc(Cl)nc32)C[C@@H]1O` [Compound 25], the IFN-β production result in the data set on human PBMC is on record as “activated production of IFN-β”. The IC50 in the data set on 7S mitochondria DNA was > 100 µM.

Turning to `Nc1ccn([C@@H]2O[C@@](CO)(CCl)[C@@H](O)[C@@H]2F)c(=O)n1` [Compound 40, 4-amino-1-((2R,3S,4R,5R)-5-(chloromethyl)-3-fluoro-4-hydroxy-5-(hydroxymethyl)tetrahydrofuran-2-yl)pyrimidin-2(1H)-one], in the data set with pTBK1, the “level of pTBK1” value is listed as “varies in a dose-dependent fashion”. Further, the “change in the ISG Score” value in data set [1] (compound 100 mg/kg p.o. daily) is “show a change in the ISG Score in the spleen and kidney”. Besides, the IFN-β production result with human PBMC is given as “showed inhibition of IFN-β”. The cell viability entry in the data set with human PBMC (decitabine 10 μM) is given as “some cell viability losses at higher concentrations”. Further, the half-inhibitory concentration (IC50) in the data set with 7S mitochondria DNA was > 100 µM.

On to `CC[C@]1(CO)O[C@@H](n2ccc(N)nc2=O)C[C@@H]1O` [Compound 44, 4-amino-1-((2R,4S,5R)-5-ethyl-4-hydroxy-5-(hydroxymethyl)tetrahydrofuran-2-yl)pyrimidin-2(1H)-one], for which the “level of pTBK1” value in the data set with pTBK1 is “varies in a dose-dependent fashion”. In the data set with 7S mitochondria DNA, the IC50 was > 100 µM.

For `[N-]=[N+]=N[C@]1(CO)O[C@@H](n2cc(F)c(N)nc2=O)C[C@@H]1O` [Compound 61, 4-amino-1-((2R,4S,5R)-5-azido-4-hydroxy-5-(hydroxymethyl)tetrahydrofuran-2-yl)-5-fluoropyrimidin-2(1H)-one], in the data set on 7S mitochondria DNA, the IC50 was > 100 µM.

Turning to `Nc1nc(=O)n([C@@H]2O[C@@](CO)(CCl)[C@@H](O)[C@@H]2F)cc1F` [Compound 67, 4-amino-1-[(2R,3S,4R,5R)-5-(chloromethyl)-3-fluoro-4-hydroxy-5-(hydroxymethyl)oxolan-2-yl]-5-fluoropyrimidin-2-one], the “change in the ISG Score” value in data set [1] (compound 30 mg/kg p.o. daily) is “show a change in the ISG Score in the spleen and kidney”; in data set [1] (compound 100 mg/kg p.o. daily) it was “show a change in the ISG Score in the spleen and kidney”. Also, the IC50 with 7S mitochondria DNA was > 100 µM.

`Nc1nc(=O)n([C@H]2C[C@H](O)[C@](CO)(CBr)O2)cc1F` [Compound 88, 4-amino-1-((2R,4S,5R)-5-(bromomethyl)-4-hydroxy-5-(hydroxymethyl)tetrahydrofuran-2-yl)-5-fluoropyrimidin-2(1H)-one]: the IC50 in the data set with 7S mitochondria DNA is ≤ 0.1 µM.

What is called IC50 is the concentration that gives 50% inhibition.

The values are drawn from patent publication US12187758B2 (ROME Therapeutics, Inc., priority 2022, dated 2025).
